Experimental data from PubChem BioAssay AID2060892 (Molecular Pharmacology Branch, DTP, NCI, 2025).

Test system: HOP-62 complex spheroids with HUVEC/MSC, viability
Assay: Anticancer human tumor HOP-62 cell line growth inhibition [RAS];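 also: spheroids exposed to agents for seven days before readout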;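 as to viability, T/C: 100% = DMSO vehicle control viability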
Settings: for IC50: curve of first compound; for viability, T/C: stronger effect = lower value
Excerpt: RAS pathway inhibitors in Combinations in Complex Spheroids
A high-throughput screen of multi-cell type tumor spheroids was designed to identify active combinations of RAS pathway inhibitors and targeted small molecules. Complex spheroids include a stromal component modeled by human endothelial cells (HUVEC) and fibroblasts modeled by human mesenchymal stem cells (MSCs). The concentration ranges selected for each drug and investigational agent were based upon clinically achievable concentrations if the clinical Cmax of the agent was known.
Compounds. The drugs and investigational agents: abemaciclib (NSC768073), cobimetinib (NSC768068), divarasib (GDC6063, NSC841802), docetaxel (NSC628503), GDC-1971 (RLY-1971, NSC841576), gemcitabine (NSC613327), inavolisib (NSC800729), ipatasertib (NSC767898), KB-0742 (NSC834161), MRTX-1133 (NSC836407), osimertinib (NSC779217), RMC-4630 (NSC839698), RMC-6236 (NSC851965), RMC-6291 (NSC852671), Ro-3306 (NSC812927), sapanisertib (NSC764658), SN-38 (NSC673596), staurosporine (NSC755774), SY5609 (NSC837396), and tovorafenib (DAY101, NSC766906), were obtained from the National Cancer Institute (NCI) Developmental Therapeutics Program Chemical Repository. The FDA-approved anticancer drug set is available from the NCI Developmental Therapeutics Program. […] The stock solutions were prepared in dimethyl sulfoxide (DMSO, Sigma-Aldrich, St. Louis, MO, cat. D2650) at 800-fold the tested concentration and stored at -70 degrees C prior to their use. All drugs and investigational agents were tested over a range starting from a high concentration at or near the clinical Cmax and decreasing in half-log increments. If the clinical Cmax for an agent had not been determined, the highest concentration tested was 10 microM.
Cell Culture. All cells were maintained in an incubator at 37 degrees C and 5% CO2 with 95% humidity. The PDC lines were cultured according to standard operating procedures established by the NCI PDMR. All PDCs were thawed and cultured in Matrigel-coated flasks prepared with a working solution of 1X Ham's F-12 nutrient mix, without supplementation (Invitrogen, Waltham, MA, cat. 11765054), 100 U/mL penicillin-streptomycin (Invitrogen, cat. 15140122), and 2.5% Matrigel (Corning Inc., Corning, NY, cat. 354248) for the first three passages. The 362531-283-R-J2-PDC and 782815-120-R-J1-PDC lines were cultured in 6C/Colon 1B media, which includes advanced DMEM/F-12 (Thermo Fisher Scientific, cat. 12634028), 10 mM HEPES (Thermo Fisher Scientific, cat. 15630080), 1X GlutaMAX supplement (Thermo Fisher Scientific, cat. 35050061), 0.1 mg/mL primocin (InvivoGen, San Diego, CA, cat. ant-pm-2), 10% defined fetal bovine serum, heat inactivated (HyClone Laboratories Inc., Logan, UT, cat. SH30070.03HI), 50% L-WRN conditioned media (ATCC, cat. CRL-3276), 1.25 mM N-Acetyl-L-cysteine (Sigma-Aldrich, cat. A9165), 10 mM nicotinamide (Sigma-Aldrich, cat. N0636), 1X B-27 supplement (Thermo Fisher Scientific, cat. 17504044), 1X N-2 supplement (Thermo Fisher Scientific, cat. 17502048), 50 ng/mL human EGF (Thermo Fisher Scientific, cat. PHG0311), and 10 microM Y-27632 dihydrochloride (Tocris Bioscience, cat. 1254). The K12877-001-R-J1-PDC line was cultured in 6I media, which includes all 6C/Colon 1B media plus 10 ng/mL human FGF-10 (PeproTech, cat. 100-26), 1 ng/mL human FGF-2 (PeproTech, cat. 100-18B), 1 µM prostaglandin E2 (Tocris Bioscience, cat. 2296), […] hydrocortisone (Sigma-Aldrich, cat. H4001), and […] bovine insulin (Sigma-Aldrich, cat. I6634). The K86415-001-R-J1-PDC line was cultured in 6D media, which includes all 6C/Colon 1B media components minus the L-WRN conditioned media. The 485176-168-R4-J1-PDC was cultured in PANC media, which includes all 6C/Colon 1B media plus 100 ng/mL human FGF-10 (PeproTech, cat. 100-26), 500 nM SB-431542 (Selleckchem, cat. S1067), and 10 nM gastrin (Tocris Bioscience, cat. 3006). […]

[1] = second compound 0.0316 µM, first compound 0.0316 µM
[2] = second compound 0.0316 µM, first compound 0.1 µM
[3] = second compound 0.1 µM, first compound 0.0316 µM
[4] = second compound 0.1 µM, first compound 0.1 µM
[5] = second compound 0.316 µM, first compound 0.0316 µM
[6] = second compound 0.316 µM, first compound 0.1 µM
[7] = second compound 1 µM, first compound 0.0316 µM
[8] = second compound 1 µM, first compound 0.1 µM
[9] = second compound 3.16 µM, first compound 0.0316 µM
[10] = second compound 3.16 µM, first compound 0.1 µM
[11] = second compound 10 µM, first compound 0.0316 µM
[12] = second compound 10 µM, first compound 0.1 µM

With `CC(C)n1nc(-c2ccc3oc(N)nc3c2)c2c(N)ncnc21` + C#Cc1c(F)ccc2cc(O)cc(-c3ncc4c(N5CC6CCC(C5)N6)nc(OCC56CCCN5CC(F)C6)nc4c3F)c12 the IC50 (second compound 0.0316 µM) was 27.8 nM, the IC50 (second compound 0.1 µM) was 28.1 nM and the IC50 (second compound 0.316 µM) was 19.5 nM. The IC50 (second compound 1 µM) was 12.4 nM, the IC50 (second compound 3.16 µM) was 3.75 nM and the IC50 (second compound 10 µM) was < 0.316 nM. The viability, T/C (second compound 0.0316 µM, first compound 0.000316 µM) was 99.2%, the viability, T/C (second compound 0.0316 µM, first compound 0.001 µM) was 99% and the viability, T/C (second compound 0.0316 µM, first compound 0.00316 µM) was 86.8%. It also gave a viability, T/C (second compound 0.0316 µM, first compound 0.01 µM) of 73.7%, a viability, T/C [1] of 46.3% and a viability, T/C [2] of 28.3%. For the same compound, the viability, T/C (second compound 0.1 µM, first compound 0.000316 µM) was 110%, the viability, T/C (second compound 0.1 µM, first compound 0.001 µM) was 94.9% and the viability, T/C (second compound 0.1 µM, first compound 0.00316 µM) was 83.9%. The viability, T/C (second compound 0.1 µM, first compound 0.01 µM) was 69.6%, the viability, T/C [3] was 46.9% and the viability, T/C [4] was 26.7%. The viability, T/C (second compound 0.316 µM, first compound 0.000316 µM) was 106%, the viability, T/C (second compound 0.316 µM, first compound 0.001 µM) was 99.3% and the viability, T/C (second compound 0.316 µM, first compound 0.00316 µM) was 79.3%. The viability, T/C (second compound 0.316 µM, first compound 0.01 µM) was 63.1%, the viability, T/C [5] was 41.1% and the viability, T/C [6] was 26.5%. It also gave a viability, T/C (second compound 1 µM, first compound 0.000316 µM) of 106%, a viability, T/C (second compound 1 µM, first compound 0.001 µM) of 89.7% and a viability, T/C (second compound 1 µM, first compound 0.00316 µM) of 70%. It also gave a viability, T/C (second compound 1 µM, first compound 0.01 µM) of 54.6%, a viability, T/C [7] of 36.1% and a viability, T/C [8] of 26.6%. It also gave a viability, T/C (second compound 3.16 µM, first compound 0.000316 µM) of 76.9%, a viability, T/C (second compound 3.16 µM, first compound 0.001 µM) of 67.2% and a viability, T/C (second compound 3.16 µM, first compound 0.00316 µM) of 47.6%. For the same compound, the viability, T/C (second compound 3.16 µM, first compound 0.01 µM) was 37.5%, the viability, T/C [9] was 35.6% and the viability, T/C [10] was 14.4%. The viability, T/C (second compound 10 µM, first compound 0.000316 µM) was 45.7%, the viability, T/C (second compound 10 µM, first compound 0.001 µM) was 32.8% and the viability, T/C (second compound 10 µM, first compound 0.00316 µM) was 28.2%. It also gave a viability, T/C (second compound 10 µM, first compound 0.01 µM) of 21.6%, a viability, T/C [11] of 13% and a viability, T/C [12] of 11.6%.
For `C[C@@H](NC(=O)c1ncnc(N)c1Cl)c1ncc(C(=O)Nc2cc(C(F)(F)F)c(Cl)cn2)s1` + C#Cc1c(F)ccc2cc(O)cc(-c3ncc4c(N5CC6CCC(C5)N6)nc(OCC56CCCN5CC(F)C6)nc4c3F)c12, the IC50 (second compound 0.0316 µM) was > 10000 nM, the IC50 (second compound 0.1 µM) was > 10000 nM and the IC50 (second compound 0.316 µM) was > 10000 nM. For the same compound, the IC50 (second compound 1 µM) was > 10000 nM, the IC50 (second compound 3.16 µM) was > 10000 nM and the IC50 (second compound 10 µM) was 457 nM. For the same compound, the viability, T/C [1] was 109%, the viability, T/C [2] was 105% and the viability, T/C (second compound 0.0316 µM, first compound 0.316 µM) was 101%. For the same compound, the viability, T/C (second compound 0.0316 µM, first compound 1 µM) was 102%, the viability, T/C (second compound 0.0316 µM, first compound 3.16 µM) was 92.6% and the viability, T/C (second compound 0.0316 µM, first compound 10 µM) was 78.6%. The viability, T/C [3] was 110%, the viability, T/C [4] was 113% and the viability, T/C (second compound 0.1 µM, first compound 0.316 µM) was 105%. For the same compound, the viability, T/C (second compound 0.1 µM, first compound 1 µM) was 102%, the viability, T/C (second compound 0.1 µM, first compound 3.16 µM) was 96.8% and the viability, T/C (second compound 0.1 µM, first compound 10 µM) was 75.4%. The viability, T/C [5] was 114%, the viability, T/C [6] was 101% and the viability, T/C (second compound 0.316 µM, first compound 0.316 µM) was 96.6%. It also gave a viability, T/C (second compound 0.316 µM, first compound 1 µM) of 104%, a viability, T/C (second compound 0.316 µM, first compound 3.16 µM) of 97.6% and a viability, T/C (second compound 0.316 µM, first compound 10 µM) of 62.8%. For the same compound, the viability, T/C [7] was 117%, the viability, T/C [8] was 97.9% and the viability, T/C (second compound 1 µM, first compound 0.316 µM) was 91.1%. For the same compound, the viability, T/C (second compound 1 µM, first compound 1 µM) was 94.1%, the viability, T/C (second compound 1 µM, first compound 3.16 µM) was 88.6% and the viability, T/C (second compound 1 µM, first compound 10 µM) was 65.4%. It also gave a viability, T/C [9] of 83.2%, a viability, T/C [10] of 78.7% and a viability, T/C (second compound 3.16 µM, first compound 0.316 µM) of 77.1%. It also gave a viability, T/C (second compound 3.16 µM, first compound 1 µM) of 77.4%, a viability, T/C (second compound 3.16 µM, first compound 3.16 µM) of 73.4% and a viability, T/C (second compound 3.16 µM, first compound 10 µM) of 58.4%. It also gave a viability, T/C [11] of 51.9%, a viability, T/C [12] of 46.8% and a viability, T/C (second compound 10 µM, first compound 0.316 µM) of 54.1%. The viability, T/C (second compound 10 µM, first compound 1 µM) was 49.9%, the viability, T/C (second compound 10 µM, first compound 3.16 µM) was 43.4% and the viability, T/C (second compound 10 µM, first compound 10 µM) was 33.7%.
